Holding throughout (assay): In vitro combination study with tazemetostat, cell proliferation (Cell Titer Glo)
Assay [1] has as its system NCI-H460. Particulars: 7 days tazemetostat pre-treatment, 6 days co-treatment with second agent.
The test system of assay [2] is A427. As to conditions: A427; 7 days tazemetostat pre-treatment, 6 days co-treatment with second agent.
In assay [3] the test system is NCI-H2110. Particulars: 7 days tazemetostat pre-treatment, 6 days co-treatment with second agent.
The test system of assay [4] is NCI-H522. As to conditions: 7 days tazemetostat pre-treatment, 6 days co-treatment with second agent.
The subject of assay [5] is NCI-H1703. Particulars: 7 days tazemetostat pre-treatment, 6 days co-treatment with second agent.
In assay [6] the test system is NCI-H1299. Particulars: 7 days tazemetostat pre-treatment, 6 days co-treatment with second agent.
Assay [7] deals with NCI-H1793. As to conditions: 7 days tazemetostat pre-treatment, 6 days co-treatment with second agent.
The subject of assay [8] is NCI-H838. As to conditions: 7 days tazemetostat pre-treatment, 6 days co-treatment with second agent.
Assay [9] relates to A549. As to conditions: 7 days tazemetostat pre-treatment, 6 days co-treatment with second agent.
The test system of assay [10] is NCI-H2122. Particulars: 7 days tazemetostat pre-treatment, 6 days co-treatment with second agent.
Assay [11] relates to NCI-H1993. As to conditions: 7 days tazemetostat pre-treatment, 6 days co-treatment with second agent.
Assay [12] has as its system NCI-H661. As to conditions: 7 days tazemetostat pre-treatment, 6 days co-treatment with second agent.
For assay [13], the system named is HCC827. Particulars: 7 days tazemetostat pre-treatment, 6 days co-treatment with second agent.
The subject of assay [14] is NCI-H2030. Particulars: 7 days tazemetostat pre-treatment, 6 days co-treatment with second agent.
For assay [15], the system named is Calu-3. As to conditions: 7 days tazemetostat pre-treatment, 6 days co-treatment with second agent.
Assay [16] deals with Calu-6. Particulars: 7 days tazemetostat pre-treatment, 6 days co-treatment with second agent.
For assay [17], the system named is NCI-H1573. As to conditions: 7 days tazemetostat pre-treatment, 6 days co-treatment with second agent.
Assay [18] has as its system NCI-H23. Particulars: 7 days tazemetostat pre-treatment, 6 days co-treatment with second agent.

Structures are written as SMILES.

As to `CC(=O)Nc1cccc(-n2c(=O)n(C3CC3)c(=O)c3c(Nc4ccc(I)cc4F)n(C)c(=O)c(C)c32)c1` [Trametinib, trametinib], the “combinatorial effect with tazemetostat (Loewe volume class)” value (“combinatorial effect with tazemetostat” for short) in assay [1] is given as “Anta. (volumes <−1 denoted “antagonism”)”; in assay [2], “Syn. (Loewe volumes greater than 1 denoted “synergy”)”; in assay [3], “Syn. (Loewe volumes greater than 1 denoted “synergy”)”; in assay [4] it was “Syn. (Loewe volumes greater than 1 denoted “synergy”)”; in [5], “Syn. (Loewe volumes greater than 1 denoted “synergy”)”; in assay [6], “Syn. (Loewe volumes greater than 1 denoted “synergy”)”. For the same compound, the “combinatorial effect with tazemetostat” value is “Syn. (Loewe volumes greater than 1 denoted “synergy”)” in assay [7]; “Syn. (Loewe volumes greater than 1 denoted “synergy”)” in [8]; “Anta. (volumes <−1 denoted “antagonism”)” in assay [9]; “Anta. (volumes <−1 denoted “antagonism”)” in assay [10]; “Syn. (Loewe volumes greater than 1 denoted “synergy”)” in assay [11]; “Add. (A value between −1 and 1 denoted “additivity”)” in [12]. Moreover, the “combinatorial effect with tazemetostat” value in assay [13] is “Syn. (Loewe volumes greater than 1 denoted “synergy”)”; in [14], “Syn. (Loewe volumes greater than 1 denoted “synergy”)”; in assay [15], “Syn. (Loewe volumes greater than 1 denoted “synergy”)”; in assay [16], “Add. (A value between −1 and 1 denoted “additivity”)”; in assay [17], “Syn. (Loewe volumes greater than 1 denoted “synergy”)”; in assay [18], “Add. (A value between −1 and 1 denoted “additivity”)”.
Turning to `CC(=O)O[C@@]12CO[C@@H]1C[C@H](O)[C@@]1(C)C(=O)[C@H](O)C3=C(C)[C@@H](OC(=O)[C@H](O)[C@@H](NC(=O)OC(C)(C)C)c4ccccc4)C[C@@](O)([C@@H](OC(=O)c4ccccc4)[C@H]21)C3(C)C` [Docetaxel, docetaxel], the “combinatorial effect with tazemetostat” value was “Syn. (Loewe volumes greater than 1 denoted “synergy”)” in [1]; “Syn. (Loewe volumes greater than 1 denoted “synergy”)” in assay [2]; “Add. (A value between −1 and 1 denoted “additivity”)” in assay [3]; “Add. (A value between −1 and 1 denoted “additivity”)” in [4]; “Add. (A value between −1 and 1 denoted “additivity”)” in assay [5]; “Syn. (Loewe volumes greater than 1 denoted “synergy”)” in assay [6]. In addition, the “combinatorial effect with tazemetostat” value was “Syn. (Loewe volumes greater than 1 denoted “synergy”)” in assay [7]; “Add. (A value between −1 and 1 denoted “additivity”)” in assay [8]; “Add. (A value between −1 and 1 denoted “additivity”)” in assay [9]; “Add. (A value between −1 and 1 denoted “additivity”)” in [10]; “Add. (A value between −1 and 1 denoted “additivity”)” in [11]; “Syn. (Loewe volumes greater than 1 denoted “synergy”)” in assay [12]. In addition, the “combinatorial effect with tazemetostat” value is “Add. (A value between −1 and 1 denoted “additivity”)” in assay [13]; “Syn. (Loewe volumes greater than 1 denoted “synergy”)” in assay [14]; “Syn. (Loewe volumes greater than 1 denoted “synergy”)” in [15]; “Add. (A value between −1 and 1 denoted “additivity”)” in assay [16]; “Add. (A value between −1 and 1 denoted “additivity”)” in assay [17]; “Add. (A value between −1 and 1 denoted “additivity”)” in assay [18].
For `COc1cc(N2CCC(N3CCN(C)CC3)CC2)ccc1Nc1ncc(Cl)c(Nc2ccccc2P(C)(C)=O)n1` [Brigatinib, brigatinib], the “combinatorial effect with tazemetostat” value in assay [1] was “Syn. (Loewe volumes greater than 1 denoted “synergy”)”; in assay [2] it was “Syn. (Loewe volumes greater than 1 denoted “synergy”)”; in [3], “Syn. (Loewe volumes greater than 1 denoted “synergy”)”; in [4], “Syn. (Loewe volumes greater than 1 denoted “synergy”)”; in assay [5] it was “Syn. (Loewe volumes greater than 1 denoted “synergy”)”; in assay [6], “Add. (A value between −1 and 1 denoted “additivity”)”. In addition, the “combinatorial effect with tazemetostat” value in [7] is “Syn. (Loewe volumes greater than 1 denoted “synergy”)”; in [8] it was “Syn. (Loewe volumes greater than 1 denoted “synergy”)”; in assay [9] it was “Syn. (Loewe volumes greater than 1 denoted “synergy”)”; in assay [10] it was “Add. (A value between −1 and 1 denoted “additivity”)”; in assay [11], “Syn. (Loewe volumes greater than 1 denoted “synergy”)”; in [12], “Add. (A value between −1 and 1 denoted “additivity”)”. The “combinatorial effect with tazemetostat” value in assay [14] was “Syn. (Loewe volumes greater than 1 denoted “synergy”)”; in assay [15], “Syn. (Loewe volumes greater than 1 denoted “synergy”)”; in [16], “Add. (A value between −1 and 1 denoted “additivity”)”; in assay [17] it was “Syn. (Loewe volumes greater than 1 denoted “synergy”)”; in assay [18], “Syn. (Loewe volumes greater than 1 denoted “synergy”)”.
For the compound `CN(C)C/C=C/C(=O)Nc1cc2c(Nc3ccc(F)c(Cl)c3)ncnc2cc1O[C@H]1CCOC1` [Afatinib, afatinib], the “combinatorial effect with tazemetostat” value was “Add. (A value between −1 and 1 denoted “additivity”)” in assay [1]; “Syn. (Loewe volumes greater than 1 denoted “synergy”)” in [2]; “Syn. (Loewe volumes greater than 1 denoted “synergy”)” in assay [3]; “Syn. (Loewe volumes greater than 1 denoted “synergy”)” in assay [4]; “Add. (A value between −1 and 1 denoted “additivity”)” in assay [5]; “Add. (A value between −1 and 1 denoted “additivity”)” in [6]. Also, the “combinatorial effect with tazemetostat” value in assay [7] is “Syn. (Loewe volumes greater than 1 denoted “synergy”)”; in assay [8], “Syn. (Loewe volumes greater than 1 denoted “synergy”)”; in assay [9], “Anta. (volumes <−1 denoted “antagonism”)”; in assay [10] it was “Add. (A value between −1 and 1 denoted “additivity”)”; in [11] it was “Add. (A value between −1 and 1 denoted “additivity”)”; in assay [12] it was “Add. (A value between −1 and 1 denoted “additivity”)”. For the same compound, the “combinatorial effect with tazemetostat” value in assay [14] is “Add. (A value between −1 and 1 denoted “additivity”)”; in assay [15], “Syn. (Loewe volumes greater than 1 denoted “synergy”)”; in assay [16] it was “Add. (A value between −1 and 1 denoted “additivity”)”; in [17] it was “Add. (A value between −1 and 1 denoted “additivity”)”; in assay [18], “Add. (A value between −1 and 1 denoted “additivity”)”.

For the origin of these results see patent US11452727B2, “Combination therapy for treating cancer” (Epizyme, Inc., priority 2017, dated 2022).
